Test [1] concerns Botrytis cinerea. Nature of the test: Inhibition of respiratory activity in Botryotinia fuckeliana mycelium assessed as rate of oxygen consumption at 100 mg/L by Clark-type oxygen electrode recording analysis in presence of succinate and 2 mM mitochondrial alternative oxidase inhibitor, SHAM. The class given is functional.
Test [2] concerns Botrytis cinerea. Nature of the test: Fungicidal activity against Botryotinia fuckeliana grown on PDA medium assessed as inhibition of mycelial growth incubated for 4 to 7 days at 25 degC in presence of 10 mg/L mitochondrial alternative oxidase inhibitor, SHAM. Type of test: functional, organism-based.
The test system of test [3] is Botrytis cinerea. Nature of the test: Depletion of total adenylate pool in Botryotinia fuckeliana mycelium at 80 mg/L after 24 to 48 hr by reverse phase HPLC analysis. The class given is functional, organism-based.
The subject of test [4] is Botrytis cinerea. Nature of the test: Induction of respiratory activity in Botryotinia fuckeliana mycelium assessed as rate of oxygen consumption at 10 mg/L after 2 min by Clark-type oxygen electrode recording analysis. Type of test: functional.
The subject of test [5] is Botrytis cinerea. Nature of the test: Depletion of ATP content in Botryotinia fuckeliana mycelium at 80 mg/L after 24 to 48 hr by reverse phase HPLC analysis. Type of test: functional, organism-based.
In test [6] the test system is Botrytis cinerea. Nature of the test: Inhibition of respiratory activity in Botryotinia fuckeliana mycelium assessed as decrease in rate of oxygen consumption at 100 mg/L by Clark-type oxygen electrode recording analysis in presence of glucose (reference value: 0%). Type of test: functional.
For test [7], the system named is Botrytis cinerea. Nature of the test: Inhibition of respiratory activity in Botryotinia fuckeliana mycelium assessed as rate of oxygen consumption at 100 mg/L by Clark-type oxygen electrode recording analysis in presence of glucose and 2 mM mitochondrial alternative oxidase inhibitor, SHAM. Type of test: functional.
For test [8], the system named is Botrytis cinerea. Nature of the test: Fungistatic activity against Botryotinia fuckeliana grown in liquid medium assessed as increase in mycelium dry weight at 80 mg/L incubated for 24 hr prior to transferring mycelium to drug-free MYS medium measured after 12 hr. Type of test: functional.
Test [9] deals with Botrytis cinerea. Nature of the test: Fungistatic activity against Botryotinia fuckeliana grown in liquid medium assessed as increase in mycelium dry weight at 80 mg/L incubated for 24 hr prior to transferring mycelium to drug-free MYS medium measured after 6 hr. The class given is functional.
For test [10], the system named is Botrytis cinerea. The test is described as follows: Fungicidal activity against Botryotinia fuckeliana grown in liquid medium assessed as inhibition of mycelial growth at 80 mg/L after 12 hr. Type of test: functional, organism-based.
The test system of test [11] is Botrytis cinerea. The test is described as follows: Fungicidal activity against Botryotinia fuckeliana grown on YGA medium assessed as inhibition of mycelial growth incubated for 4 days in the dark at 25 degC in presence of non-fermentable carbon source, glycerol. Conditions: 96 h. The class given is functional, organism-based.
The subject of test [12] is Botrytis cinerea. Nature of the test: Fungicidal activity against Botryotinia fuckeliana grown in liquid medium assessed as inhibition of mycelial growth after 24 hr. The class given is functional, organism-based.
Test [13] deals with Botrytis cinerea. Nature of the test: Inhibition of respiratory activity in Botryotinia fuckeliana mycelium assessed as rate of oxygen consumption at 100 mg/L after 2 min by Clark-type oxygen electrode recording analysis. Type of test: functional.
Test [14] concerns Botrytis cinerea. Nature of the test: Inhibition of respiratory activity in Botryotinia fuckeliana mycelium assessed as decrease in rate of oxygen consumption at 100 mg/L by Clark-type oxygen electrode recording analysis in presence of succinate (reference value: 0%). Type of test: functional.
Test [15] relates to Botrytis cinerea. The test is described as follows: Depletion of ATP content in Botryotinia fuckeliana mycelium at 80 mg/L after 6 hr by reverse phase HPLC analysis. Type of test: functional.
Test [16] relates to Botrytis cinerea. The test is described as follows: Fungicidal activity against Botryotinia fuckeliana grown on YgA medium assessed as inhibition of mycelial growth incubated for 4 days in the dark at 25 degC in presence of fermentable carbon source, glucose. The class given is functional, organism-based. Particulars: 96 h.
For test [17], the system named is Botrytis cinerea. Nature of the test: Inhibition of respiratory activity in Botryotinia fuckeliana mycelium assessed as decrease in rate of oxygen consumption at 20 uM by Clark-type oxygen electrode recording analysis in presence of succinate (reference value: 0%). The class given is functional.
The test system of test [18] is Botrytis cinerea. Nature of the test: Inhibition of respiratory activity in Botryotinia fuckeliana mycelium assessed as decrease in rate of oxygen consumption at 20 uM by Clark-type oxygen electrode recording analysis in presence of succinate and 2 mM mitochondrial alternative oxidase inhibitor, SHAM (reference value: 0%). Type of test: functional.
Test [19] relates to Botrytis cinerea. The test is described as follows: Inhibition of respiratory activity in Botryotinia fuckeliana mycelium assessed as decrease in rate of oxygen consumption at 20 uM by Clark-type oxygen electrode recording analysis in presence of glucose (reference value: 0%). Type of test: functional.
Test [20] deals with Botrytis cinerea. The test is described as follows: Inhibition of respiratory activity in Botryotinia fuckeliana mycelium assessed as decrease in rate of oxygen consumption at 20 uM by Clark-type oxygen electrode recording analysis in presence of glucose and 2 mM mitochondrial alternative oxidase inhibitor, SHAM (reference value: 0%). The class given is functional.
Test [21] deals with Botrytis cinerea. The test is described as follows: Inhibition of respiratory activity in Botryotinia fuckeliana mycelium assessed as decrease in rate of oxygen consumption at 2 mM by Clark-type oxygen electrode recording analysis in presence of succinate (reference value: 0%). Type of test: functional.
The test system of test [22] is Botrytis cinerea. The test is described as follows: Inhibition of respiratory activity in Botryotinia fuckeliana mycelium assessed as decrease in rate of oxygen consumption at 2 mM by Clark-type oxygen electrode recording analysis in presence of glucose (reference value: 0%). Type of test: functional.

Here are results for three compounds from ChEMBL document CHEMBL3045109, “Inhibitory effect of bionic fungicide 2-allylphenol on Botrytis cinerea (Pers. ex Fr.) in vitro” (Pest Manag Sci, 2009).

≈ marks a conversion by molar mass, not a printed value. Calls of active or inactive are those of the source. The rule behind the calls is not given here.

Regarding `C=CCc1ccccc1O` [2-ALLYLPHENOL], the “inhibition (INH)” value in the test on Botrytis cinerea [1] and with Botrytis cinerea [7] was 100% each time. For the same compound, the “growth inhibition (GI)” value in the test with Botrytis cinerea [2] was “Active”. The inhibition result in the test with Botrytis cinerea [3], in the test on Botrytis cinerea [5] and with Botrytis cinerea [10] was “Active” each time. In the test on Botrytis cinerea [4], the Activity was 30%. Also, the inhibition at 100 µg/mL in the test with Botrytis cinerea [6] amounted to 46%; in the test on Botrytis cinerea [13] it was 60%; in the test on Botrytis cinerea [14], 48%. In addition, the “fold change (FC)” value in the test with Botrytis cinerea [8] is on record as 1.7; in the test on Botrytis cinerea [9], 0.9. Besides, the values for the EC50 in the test with Botrytis cinerea [11], in the test on Botrytis cinerea [12] and in the test with Botrytis cinerea [16] were 7.1 µg/mL, 25.4 µg/mL (≈ 189 µM) and 22.9 µg/mL, respectively. For the same compound, the inhibition at 80 µg/mL in the test with Botrytis cinerea [15] turned out to be 70%.

For `CCCCCC[C@H]1C(=O)O[C@H](C)[C@H](NC(=O)c2cccc(NC=O)c2O)C(=O)O[C@@H](C)[C@@H]1OC(=O)CC(C)C` [ANTIMYCIN A], the values for the inhibition at 20 µM in the test on Botrytis cinerea [17] and with Botrytis cinerea [19] were 55% and 77%, respectively. Besides, the “inhibition (INH)” value in the test with Botrytis cinerea [18] and with Botrytis cinerea [20] was 100% in each case.

Turning to `O=C(NO)c1ccccc1O` [SALICYLHYDROXAMIC ACID], the inhibition at 2000 µM in the test with Botrytis cinerea [21] amounted to 32%; with Botrytis cinerea [22] it was 45%.

One may read the inhibition as the share of the control response that was lost under treatment. Broadly, the EC50 is the concentration needed to bring the measured effect to its halfway point.
